What all share (type): cell-based
The test system of assay [1] is S. mutans. Description: Minimum inhibitory concentration (MIC) against S. mutans, serial dilution, TH medium plus sucrose, 96 h. To be noted: Streptococcus mutans, S. mutans in TH medium plus sucrose, 37° C. aerobically. Here is the method:
Methods: G43, and its non-binding counterpart, G43TEG (N-(2-carbamoyl-4-(2-(2-(2-(2-hydroxyethoxy)ethoxy)ethoxy)ethoxy)phenyl)-5-nitrobenzo[b]thiophene-2-carboxamide), were synthesized and minimum inhibitory concentration (MIC) against S. mutans was established. The compounds were serially diluted in DMSO to 400, 200, 100, 50, 25 and 12.5 then added to S. mutans grown in TH medium plus sucrose. Cultures were incubated for 96 h at 37° C. aerobically. Supernatants with planktonic cells and biofilms were assayed separately for metabolic activity using S. mutans carrying a renilla luciferase reporter. G43 or G43TEG were added at 4 wt % into 50:50 BisGMA/TEGDMA and 70 wt % filler. 0.2 wt % BAPO, 0.05 wt % BHT were used as the photoinitiator and inhibitor, respectively. Polymerization kinetics were assessed for 5 min by near-IR in discs (4 mm by 10 mm diameter), cured with a LED light source (700 mW/cm2, 30 s). Discs were then immersed in deionized H2O for 7 days, with extracted monomers collected every 24 h. Results were analyzed with one-way ANOVA/Tukey's test (α=0.05). […] Polymerizations of dental resins were relatively unaffected by 4% G43 or G43TEG (FIG. 1).

In assay [2] the test system is S. mutans. As to the kind of experiment: Biofilm bacterial viability by metabolic activity, renilla luciferase reporter S. mutans. To be noted: at MIC, FIG. 1. The text has this: FIG. 2 represents S. mutans bacterial viability as measured using a metabolic activity via arenilla-reporter S. mutans(Merritt2016).
Methods: G43, and its non-binding counterpart, G43TEG (N-(2-carbamoyl-4-(2-(2-(2-(2-hydroxyethoxy)ethoxy)ethoxy)ethoxy)phenyl)-5-nitrobenzo[b]thiophene-2-carboxamide), were synthesized and minimum inhibitory concentration (MIC) against S. mutans was established. The compounds were serially diluted in DMSO to 400, 200, 100, 50, 25 and 12.5 then added to S. mutans grown in TH medium plus sucrose. Cultures were incubated for 96 h at 37° C. aerobically. Supernatants with planktonic cells and biofilms were assayed separately for metabolic activity using S. mutans carrying a renilla luciferase reporter. […] Polymerization kinetics were assessed for 5 min by near-IR in discs (4 mm by 10 mm diameter), cured with a LED light source (700 mW/cm2, 30 s). […] Results were analyzed with one-way ANOVA/Tukey's test (α=0.05). […]
Eight G43 derivatives (G43, G43TEG, G43-TEG-MMA, G43-A2-OMe, G43-A-NH2, G43B-Furan, G43-B1-OMe, G43-C3-OMe, and G16) were synthesized de novo screened against S. mutans for biofilm inhibition. […] Biofilms were stained with crystal violet (CV), washed 3× with DI H2O, and then the CV was volumetrically extracted to colorimetrically determine the quantity of biofilm. […] Results were analyzed with one-way ANOVA/Tukey's test (α=0.05).

In assay [3] the test system is S. mutans. As to the kind of experiment: Biofilm quantification by crystal violet (CV) stain, Abs at 562 nm. The conditions noted are these: 50 μM, FIGS. 3 & 4. On the procedure:
FIG. 3 Represents quantification of biofilms grown under different inoculants (50 μM) using crystal violet (CV) stain: (top) Biofilm morphology as visualized after CV stain, (chart) Colorimetrically quantified CV (Absat562 nm) to quantity the biofilm.
FIG. 4 represents quantification of biofilms grown under different inoculants (50 μM) using crystalviolet (CV) stain: (top) Biofilm morphology as visualized after CVstain, (chart) Colorimetrically quantified CV (Absat562 nm) to quantity the biofilm.
[…] G43 derivatives (G43, G43TEG, G43-TEG-MMA, G43-A2-OMe, G43-A-NH2, G43B-Furan, G43-B1-OMe, G43-C3-OMe, and G16) were synthesized de novo screened against S. mutans for biofilm inhibition. The compounds were dissolved in DMSO and serially diluted in H2O at 50 μM, then added to S. mutans cultures (TH medium with sucrose) & incubated for 96 h at 37° C. aerobically. Biofilms were assayed for bacterial viability (metabolic activity via a renilla-reporter S. mutans—Merritt2016). Biofilms were stained with crystal violet (CV), washed 3× with DI H2O, and then the CV was volumetrically extracted to colorimetrically determine the quantity of biofilm. Next, biofilms were washed 3× with DI H2O, then sterilized with EtOH, azeotropically dried. […] Results were analyzed with one-way ANOVA/Tukey's test (α=0.05).

The test system of a further assay is GtfC mutants. Description: Crystal violet biofilm quantification in four strains of S. mutans (Gtf mutants). To be noted: FIG. 5. Here is the method:
FIG. 5 represents quantification of biofilms grown using four strains of S. mutans and colorimetrically quantified CV (Absat562 nm) to quantity the biofilm. Note that AGTF denotes which Gtf enzyme(s) are not expressed by the strain.
Eight G43 derivatives (G43, G43TEG, G43-TEG-MMA, G43-A2-OMe, G43-A-NH2, G43B-Furan, G43-B1-OMe, G43-C3-OMe, and G16) were synthesized de novo screened against S. mutans for biofilm inhibition. The compounds were dissolved in DMSO and serially diluted in H2O at 50 μM, then added to S. mutans cultures (TH medium with sucrose) & incubated for 96 h at 37° C. aerobically. Biofilms were assayed for bacterial viability (metabolic activity via a renilla-reporter S. mutans—Merritt2016). Biofilms were stained with crystal violet (CV), washed 3× with DI H2O, and then the CV was volumetrically extracted to colorimetrically determine the quantity of biofilm. Next, biofilms were washed 3× with DI H2O, then sterilized with EtOH, azeotropically dried. Insoluble biofilm was chemically digested by 1) methylation, 2) acid depolymerization, 3) reduction, and 4) acylation, resulting in methylated alditol acetates for polysaccharide connectivity determination by GC/MS. Results were analyzed with one-way ANOVA/Tukey's test (α=0.05).

Structures are written as SMILES.

The term MIC denotes the lowest concentration that inhibits growth of the organism.

For the molecule `NC(=O)c1ccccc1NC(=O)c1cc2cc([N+](=O)[O-])ccc2s1` [G43, N-(2-carbamoylphenyl)-5-nitrobenzo[b]thiophene-2-carboxamide], in the assay on S. mutans [1], the MIC is 25 to 50 µM. The “reduction of viable biofilm cells” value in the assay on S. mutans [2] is “significant reduction”. Also, the biofilm production entry in the assay on S. mutans [3] is “significantly reduced”. Further, the “biofilm reduction in GtfC mutants” value in the assay with GtfC mutants is recorded as “biofilm reduction efficacy”.
The corresponding values for `NC(=O)c1cc(OCCOCCOCCOCCO)ccc1NC(=O)c1cc2cc([N+](=O)[O-])ccc2s1` [G43TEG, N-(2-carbamoyl-4-(2-(2-(2-(2-hydroxyethoxy)ethoxy)ethoxy)ethoxy)phenyl)-5-nitrobenzo[b]thiophene-2-carboxamide] are 25 to 50 µM, “significant reduction”, “significantly reduced” and “biofilm reduction efficacy”.

The values above are taken from patent US20210284622A1, “BIOACTIVE POLYMERS WITH ANTI=FOULING PROPERTIES FOR MEDICAL AND DENTAL USES” (OREGON HEALTH & SCIENCE UNIVERSITY, priority 2020, published 2021).
